Assay type in all cases: cell-based, human
Data set [1] concerns Caov-3 ovarian tumor cells. In words: Viability of ovarian tumor cells after siRNA transfection (trypan blue count). Conditions: 50 nM siRNA, DharmaFECT, 96 hours, vs control siRNA. How it is done:
(§1) Each of the five siRNA duplexes presented in Table 2 were introduced into cultures of ovarian tumor cells at a concentration of 50 nM. Briefly, fifty to one hundred thousand tumor cells were added to each well of a 6 well plate and allowed to attach to the surface and grow for 18 hours in DMEM medium containing 10% fetal bovine serum. A total of 100 pmol of each siRNA was introduced into cells using 1 microliter DharmaFECT (Thermo Scientific) reagent in 2 ml total volume of media. Cells were incubated with the siRNA for 96 hours. The viability of the ovarian tumor cells was assessed by counting cells with a hemocytometer following trypan blue exclusion staining. Each of the five sequences reduced the number of viable cells at least 40% (compared to control siRNA-treated cells) in at least one ovarian tumor cell line.

The subject of data set [2] is ES-2 ovarian tumor cells. Described as above. Conditions: 50 nM siRNA, DharmaFECT, 96 hours, vs control siRNA. How it is done: as §1
Data set [3] relates to OV-90 ovarian tumor cells. The description is as above. Conditions: 50 nM siRNA, DharmaFECT, 96 hours, vs control siRNA. As for the experimental part:
as §1

The subject of data set [4] is OVCAR3 ovarian tumor cells. Described as above. Conditions: 50 nM siRNA, DharmaFECT, 96 hours, vs control siRNA. How it is done: as §1
For data set [5], the system named is PA-1 ovarian tumor cells. The description is as above. Conditions: 50 nM siRNA, DharmaFECT, 96 hours, vs control siRNA. How it is done:
as §1

Data set [6] concerns SK-OV-3 ovarian tumor cells. Described as above. Conditions: 50 nM siRNA, DharmaFECT, 96 hours, vs control siRNA. How it is done: as §1
For data set [7], the system named is TOV-112D ovarian tumor cells. The data set is described as above. Conditions: 50 nM siRNA, DharmaFECT, 96 hours, vs control siRNA. As for the experimental part:
as §1

For data set [8], the system named is UWB1.289 ovarian tumor cells. The data set is described as above. Conditions: 50 nM siRNA, DharmaFECT, 96 hours, vs control siRNA. As for the experimental part: as §1
The test system of data set [9] is Hs832.Tc cells. Kind of data set: Viability of ovarian cells after siRNA transfection (trypan blue count). Conditions: 50 nM siRNA, DharmaFECT, 96 hours, vs control siRNA. As for the experimental part: as §1
Data set [10] relates to LNCaP prostate tumor cells. Kind of data set: Viability of prostate tumor cells after siRNA transfection (trypan blue count). Conditions: 50 nM siRNA, DharmaFECT, 96 hours, vs control siRNA. As for the experimental part: as §1, with “prostate” for “ovarian”, “[…]” for “100 pmol”, “DharmaFECT” for “DharmaFECT (Thermo Scientific)”
The test system of data set [11] is PC3 prostate tumor cells. Described as above. Conditions: 50 nM siRNA, DharmaFECT, 96 hours, vs control siRNA. As for the experimental part:
as §1, with “prostate” for “ovarian”, “[…]” for “100 pmol”, “DharmaFECT” for “DharmaFECT (Thermo Scientific)”

Data set [12] relates to MCF-7 breast tumor cells. In words: Viability of breast tumor cells after siRNA transfection (trypan blue count). On the set-up: dose or concentration left out as unconfirmed. Conditions: DharmaFECT, 96 hours, vs control siRNA. How it is done: as §1, with “of breast” for “of ovarian”, “serum. […]” for “serum. A total of 100 pmol of each siRNA was introduced into cells using 1 microliter DharmaFECT (Thermo Scientific) reagent in 2 ml total volume of media.”, “the breast” for “the ovarian”, “blue exclusion.” for “blue exclusion staining.”

Data set [13] has as its system MDA-MB-231 breast tumor cells. The description is as above. Conditions: DharmaFECT, 96 hours, vs control siRNA. On the set-up: dose or concentration left out as unconfirmed.
For data set [14], the system named is ES-2 cells. Kind of data set: Concentration-dependent effect of siRNA on cell survival (IC50). Conditions: cell viability 96 hours after adding siRNA, FIG. 6A, read-out: IC50 (concentration of siRNA that inhibited growth by 50%). As for the experimental part:
(§2) FIG. 6A and FIG. 6B show concentration-dependent effects of siRNA against the EVI1 gene on cell survival. Ovarian tumor cells ES-2 and TOV-112D were seeded into each well of a 12 well plate. Increasing concentrations of siRNA were introduced into the cells using 1 microliter of Dharmafect reagent in 2 ml of medium. The number of viable cells was determined using trypan blue staining and counting in a hemacytometer.
(§3) For a substance to be an effective cancer therapeutic agent, it needs a robust cancer killing effect at very low concentrations, which for siRNA will be understood to be at subnanomolar concentrations in cell culture. The concentration of siRNA that inhibited growth of ovarian tumor cells by 50% (IC50) was determined by measuring cell viability 96 hours after adding one of various dose levels of siRNA to identical numbers of tumor cells in culture. […] For TOV-112D cells, the IC50 of siEVI1-979 (SEQ ID NOs 9-10) is ˜4 nM, and the IC50 of siEVI1-2910 (SEQ ID NOs 13-14) is ˜0.8 nM. To further identify potent sequences that inhibit the growth of ovarian tumor cells, sequences of up to 10 bp upstream and 10 bp downstream of siEVI1-2910 (SEQ ID NOs: 121-160) were prepared and administered to ES-2 and TOV-112D ovarian tumor cells at a concentration of 2.5 nM using DharmaFECT transfection reagent. FIG. 7A depicts the results of percent growth inhibition of TOV-112D ovarian tumor cells relative to a transfection control. […] FIG. 7B depicts the results of percent growth inhibition of ES-2 ovarian tumor cells relative to a transfection control.

The test system of data set [15] is TOV-112D cells. The description is as above. Conditions: cell viability 96 hours after adding siRNA, FIG. 6B, read-out: IC50 (concentration of siRNA that inhibited growth by 50%). As for the experimental part: as §2, §3

Experimental findings from patent US20160362693A1, “Reagents and Methods for Treating Cancer” (PeptiMed, Inc., priority 2010, published 2016) are described below.

pIC50: −log10 of the molar value.

In the case of “siEVI1-992: siRNA duplex; sense 5′-ggacaaauguucagcacuauu-3′ SEQ ID NO: 11, antisense SEQ ID NO: 12 (sense GGACAAAUGUUCAGCACUAUU; antisense UAGUGCUGAACAUUUGUCCUU; listed as RNA, chemistry not given here)”, the “Response to siRNA (% growth inhibition)” value is given as 46% in [1]; 54% in data set [2]; 25% in [3]; 0% in data set [4]; 0% in [5]; 31% in data set [6]. For the same substance, the “Response to siRNA (% growth inhibition)” value in data set [7] stood at 70%; in [8], 73%; in [9], 10%; in data set [10], 12%; in [11], 35%; in data set [12], 0%. Moreover, the “Response to siRNA (% growth inhibition)” value in [13] came to 23%.

On to “siEVI1-256: siRNA duplex; sense 5′-ccagauaaaugaucagauauu-3′ SEQ ID NO: 7, antisense SEQ ID NO: 8 (sense CCAGAUAAAUGAUCAGAUAUU; antisense UAUCUGAUCAUUUAUCUGGUU; listed as RNA, chemistry not given here)”, for which the “Response to siRNA (% growth inhibition)” value came to 13% in data set [1]; 0% in data set [2]; 26% in [3]; 0% in data set [4]; 0% in [5]; 12% in data set [6]. In addition, the “Response to siRNA (% growth inhibition)” value was found to be 36% in data set [7]; 43% in data set [8]; 0% in [9]; 4% in data set [10]; 23% in data set [11]; 32% in [12]. For the same substance, the “Response to siRNA (% growth inhibition)” value in [13] turned out to be 31%.

As for “siEVI1-979: siRNA duplex; sense 5′-gugcaaagacuguggacaauu-3′ SEQ ID NO: 9, antisense SEQ ID NO: 10 (sense GUGCAAAGACUGUGGACAAUU; antisense UUGUCCACAGUCUUUGCACUU; listed as RNA, chemistry not given here)”, the “Response to siRNA (% growth inhibition)” value was 34% in data set [1]; 63% in data set [2]; 16% in data set [3]; 60% in [4]; 0% in data set [5]; 42% in [6]. Further, the “Response to siRNA (% growth inhibition)” value in [7] was 79%; in data set [8], 14%; in data set [9] it was 0%; in data set [10] it was 12%; in [11], 8%; in data set [12] it was 0%. Besides, the “Response to siRNA (% growth inhibition)” value in data set [13] came to 14%. Moreover, the results for the pIC50 in [14] and in data set [15] were ~8.60 and ~8.40, respectively.

For the substance “siEVI1-2994: siRNA duplex; sense 5′-augaagaaguugaagaugauu-3′ SEQ ID NO: 15, antisense SEQ ID NO: 16 (sense AUGAAGAAGUUGAAGAUGAUU; antisense UCAUCUUCAACUUCUUCAUUU; listed as RNA, chemistry not given here)”, the “Response to siRNA (% growth inhibition)” value in data set [1] is on record as 28%; in data set [2] it was 54%; in [3] it was 33%; in data set [4], 0%; in [5], 18%; in data set [6], 0%. For the same substance, the “Response to siRNA (% growth inhibition)” value in [7] was determined as 70%; in [8], 0%; in [9] it was 0%; in data set [10] it was 12%; in data set [11], 25%; in [12], 57%. In addition, the “Response to siRNA (% growth inhibition)” value in data set [13] came to 21%.

Consider “siEVI1-2910: siRNA duplex; sense 5′-ggaauguggaggagagaauuu-3′ SEQ ID NO: 13, antisense SEQ ID NO: 14 (sense GGAAUGUGGAGGAGAGAAUUU; antisense AUUCUCUCCUCCACAUUCCUU; listed as RNA, chemistry not given here)”, for which the “Response to siRNA (% growth inhibition)” value in data set [1] was 47%; in [2] it was 92%; in data set [3], 23%; in data set [4] it was 73%; in [5] it was 0%; in data set [6] it was 12%. Also, the “Response to siRNA (% growth inhibition)” value is on record as 85% in data set [7]; 67% in [8]; 0% in data set [9]; 46% in [10]; 53% in data set [11]; 67% in [12]. Besides, the “Response to siRNA (% growth inhibition)” value in data set [13] is given as 21%. Besides, the pIC50 in [14] was ~9.30; in data set [15], ~9.10.
